One data set has as its system Staphylococcus aureus. The experiment in a line: Antibacterial activity against Staphylococcus aureus ATCC 29213 assessed as reduction in bacterial growth incubated for 16 to 18 hrs by microtiter plate assay. Format: functional. As to conditions: time 16-18 hrs.
The subject of another data set is Escherichia coli. The experiment in a line: Antibacterial activity against Escherichia coli ATCC 25922 assessed as reduction in bacterial growth incubated for 16 to 18 hrs by microtiter plate assay. Type of data set: functional. The settings on record: time 16-18 hrs.
The test system of a further data set is Pseudomonas aeruginosa. The experiment in a line: Antibacterial activity against Pseudomonas aeruginosa ATCC 27853 assessed as reduction in bacterial growth incubated for 16 to 18 hrs by microtiter plate assay. Type of data set: functional. As to conditions: time 16-18 hrs.
Data set [1] in a line: Metabolic stability in human liver microsomes assessed as half life at 1 uM preincubated for 5 mins in presence of NADPH incubated up to 60 mins by LC-MS/MS analysis. Type of data set: ADME, Microsome. The settings on record: time 65 min. (Liver microsomes are a subcellular fraction often used to study metabolism.)
The test system of data set [2] is Mycobacterium tuberculosis. The experiment in a line: Antimycobacterial activity against Mycobacterium tuberculosis H37Rv assessed as minimum bactericidal concentration by time kill assay. Type of data set: functional.
Data set [3] deals with Mycolicibacterium fortuitum. The experiment in a line: Antimycobacterial activity against Mycobacterium fortuitum ATCC 6841 assessed as inhibition of bacterial growth after 48 hrs by resazurin microtitre assay. Format: functional. (In general: The colour change of resazurin is a common sign of viable cells or microbes.)
Data set [4] can be described thus: Cytotoxicity against African green monkey Vero cells assessed as reduction in cell viability measured after 72 hrs by MTT assay. Format: toxicity, cell-based. As to conditions: chlorocebus sabaeus. Background: Tetrazolium dyes change colour on reduction, which living cells bring about.
A short description of data set [5]: Aqueous solubility in phosphate buffer at pH 7.4 incubated for 4 hrs by HPLC analysis. Type of data set: physicochemical.
Another data set relates to Klebsiella pneumoniae. The experiment in a line: Antibacterial activity against Klebsiella pneumoniae BAA 1705 assessed as reduction in bacterial growth incubated for 16 to 18 hrs by microtiter plate assay. The settings on record: time 16-18 hrs. Type of data set: functional.
Data set [6] has as its system Mycobacterium tuberculosis. The experiment in a line: Antimycobacterial activity against Mycobacterium tuberculosis H37Rv at 10 X MIC measured after 5 to 7 days by time kill assay. Type of data set: functional. As to conditions: time 5-7 day.
Another data set deals with Acinetobacter baumannii. The experiment in a line: Antibacterial activity against Acinetobacter baumannii BAA 1605 assessed as reduction in bacterial growth incubated for 16 to 18 hrs by microtiter plate assay. As to conditions: time 16-18 hrs. Format: functional.
Data set [7] deals with Mycobacterium tuberculosis. The experiment in a line: Antimycobacterial activity against Mycobacterium tuberculosis H37Rv at 1 X MIC measured after 5 to 7 days by time kill assay. Type of data set: functional. The settings on record: time 5-7 day.
The test system of data set [8] is Mycobacterium tuberculosis. The experiment in a line: Antimycobacterial activity against Mycobacterium tuberculosis H37Rv ATCC 27294 assessed as inhibition of bacterial growth measured after 7 days by resazurin microtitre assay. Format: functional. As to conditions: H37Rv ATCC 27294, 168 h, time 7 day.
A short description of data set [9]: Metabolic stability in human liver microsomes assessed as intrinsic clearance at 1 uM preincubated for 5 mins in presence of NADPH incubated up to 60 mins by LC-MS/MS analysis. As to conditions: time 65 min, read-out: CLH. Format: ADME, Microsome.
The nature of data set [10]: Selectivity index, ratio of CC50 for African green monkey Vero cells to MIC for Mycobacterium tuberculosis H37Rv ATCC 27294. Format: toxicity. The settings on record: read-out: Selectivity Index.
Another data set has as its system Mycobacteroides chelonae. The experiment in a line: Antimycobacterial activity against Mycobacterium chelonae ATCC 6841 assessed as inhibition of bacterial growth after 48 hrs by resazurin microtitre assay. Format: functional.
Data set [11] can be described thus: Metabolic stability in human liver microsomes assessed as elimination rate constant at 1 uM preincubated for 5 mins in presence of NADPH incubated up to 60 mins by LC-MS/MS analysis. Format: ADME, Microsome. As to conditions: time 65 min.
Data set [12] has as its system Mycobacteroides abscessus. The experiment in a line: Antimycobacterial activity against Mycobacterium abscessus ATCC 19977 assessed as inhibition of bacterial growth after 48 hrs by resazurin microtitre assay. Format: functional.
The subject of data set [13] is Mycobacterium tuberculosis. The experiment in a line: Antimycobacterial activity against Mycobacterium tuberculosis H37Rv assessed as reduction in log10CFU at 1XMIC measured after 5 to 6 days by time kill assay. The settings on record: time 5-6 day. Type of data set: functional, organism-based.
Data set [14] relates to Mycobacterium tuberculosis. The experiment in a line: Antimycobacterial activity against Mycobacterium tuberculosis H37Rv assessed as reduction in log10CFU at 10 X MIC measured after 5 to 6 days by time kill assay. Type of data set: functional, organism-based. The settings on record: time 5-6 day.

Converted amounts (≈) assume the structure as drawn. The source made the active and inactive calls.

As for `O=C(/C=C/c1ccc([N+](=O)[O-])o1)c1ccc(Nc2nc3cc(Cl)ccc3o2)cc1`, the MIC (as a rule, the lowest concentration found to suppress growth) is 4 µg/mL (≈ 9.76 µM) in the data set with Staphylococcus aureus; above 64 µg/mL in the data set on Escherichia coli; above 64 µg/mL in the data set with Pseudomonas aeruginosa; above 64 µg/mL in data set [3]; above 64 µg/mL in the data set on Klebsiella pneumoniae; above 64 µg/mL with Acinetobacter baumannii. The MIC was 0.03 µg/mL (≈ 0.0732 µM) in [8], above 64 µg/mL with Mycobacteroides chelonae and above 64 µg/mL in [12]. In data set [1], the half-life – broadly, the time needed for the level to fall by half in the phase considered – at 1 µM was 34.6 min. Also, the MBC (usually the smallest concentration meeting the test's criterion for killing) in data set [2] was 0.03 µg/mL (≈ 0.0732 µM). Moreover, the CC50 – broadly, the concentration that lowers cell viability or growth by half – at 72 h in data set [4] is 5 µg/mL (≈ 12.2 µM). In [5], the solubility – broadly, how much of the substance goes into solution per volume – at 4 h turned out to be 2.5 µg/mL (≈ 6.1 µM). Also, the Activity in data set [6] and in data set [7] was 100% throughout. For the same molecule, the microsomal CLint at 1 µM in data set [9] was 38.5 µL/min/mg. The selectivity ratio in data set [10] was determined as 160. Moreover, the k el at 1 h, 1 µM in data set [11] is 0.000333 s⁻¹.

With `O=C(/C=C/c1ccc([N+](=O)[O-])o1)c1ccc(Nc2nc3cc([N+](=O)[O-])ccc3o2)cc1`, the MIC with Staphylococcus aureus was 4 µg/mL (≈ 9.52 µM); in the data set on Escherichia coli it was above 64 µg/mL; with Pseudomonas aeruginosa, above 64 µg/mL; in [3], above 64 µg/mL; in the data set on Klebsiella pneumoniae, above 64 µg/mL; in the data set on Acinetobacter baumannii it was above 64 µg/mL. In addition, the values for the MIC (in data set [8]; in the data set on Mycobacteroides chelonae; in [12]) were 0.03 µg/mL (≈ 0.0714 µM), above 64 µg/mL and above 64 µg/mL, respectively. For the same molecule, the outcome in data set [13] and in [14] was Active. The CC50 at 72 h in data set [4] is 5 µg/mL (≈ 11.9 µM). Moreover, the selectivity ratio in [10] is above 800.
